Series [1] has as its target hPDE IVB (Homo sapiens, UniProt Q07343). Kind of series: PDE assay: cAMP hydrolysis by recombinant hPDE IVB in yeast lysate supernatant.
Procedure: PDE Assays and Inhibitor Studies—PDE activity was determined in 100,000×g supernatant fractions of yeast cell lysates. […] For studies in which the IC50s of various inhibitors were determined, compounds were present in the reaction mixture at concentrations that varied over three orders of magnitude. Reactions were conducted at 30° C. for 30 min.
Appropriate corrections were made for the changes in specific activity of the substrate. […] Statistical comparisons between one-site and two-site fits were conducted via F test.
The subject of series [2] is wild-type yeast cells. The experiment in a line: Yeast control: killing of wild-type cells.
Procedure: (§1) For heat shock, cells are replicated from the master plate onto two plates each containing the same medium as describe above, one of which is preheated to 55° C. for 1 hour. Cells transferred to the preheated plate are incubated at 55° C. for 5 minutes and then shifted to 30° C. For monitoring growth on acetate, the master plate is replicated to a plate containing the same medium except 2% potassium acetate instead of glucose. Growth is scored after five days at 5 days at 30° C.
The test system of series [3] is PDE-deficient mutant cells expressing the human PDE IV. The experiment in a line: Yeast growth arrest assay in PDE-deficient cells expressing human PDE IV.
Procedure: as §1

Entries after “also recorded” stand apart in the source; their conditions may differ. Some results are limits rather than exact numbers.

Consider three compounds from patent publication US20020068351A1, “Human brain phosphodiesterase” (SmithKline Beecham Corporation, priority 1994, published 2002).

By IC50 is commonly meant the point on the concentration scale where inhibition reaches its midpoint. By Km is commonly meant the concentration of substrate that gives half-maximal velocity.

hPDE IVB, sequence (Q07343 1-564 isoform Q07343-2): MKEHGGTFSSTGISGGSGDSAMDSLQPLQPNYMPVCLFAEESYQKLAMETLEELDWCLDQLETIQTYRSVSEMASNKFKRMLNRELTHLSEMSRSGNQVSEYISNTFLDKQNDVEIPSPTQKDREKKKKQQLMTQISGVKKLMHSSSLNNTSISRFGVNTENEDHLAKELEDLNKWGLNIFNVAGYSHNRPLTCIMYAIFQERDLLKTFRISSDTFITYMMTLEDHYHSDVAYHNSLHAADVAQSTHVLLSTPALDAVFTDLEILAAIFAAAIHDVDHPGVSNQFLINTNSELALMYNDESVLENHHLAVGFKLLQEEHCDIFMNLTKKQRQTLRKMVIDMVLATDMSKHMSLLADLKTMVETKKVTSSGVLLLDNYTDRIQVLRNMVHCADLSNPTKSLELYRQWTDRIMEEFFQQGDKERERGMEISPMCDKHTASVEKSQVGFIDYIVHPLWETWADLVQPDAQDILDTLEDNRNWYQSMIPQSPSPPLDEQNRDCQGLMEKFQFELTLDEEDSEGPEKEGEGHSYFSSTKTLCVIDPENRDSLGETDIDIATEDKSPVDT

As for `CN/C(=N\c1ccc(C2=NNC(=O)CC2C)cc1)NC#N` (stereo not drawn) [siquazodan, siguazodan], the half-inhibitory concentration (IC50) in series [1] is more than 30 µM.
On to `COc1ccc(C2CNC(=O)C2)cc1OC1CCCC1` (stereo not drawn) [rolipram], for which the killing effect result in series [2] and in series [3] (under normal growth conditions) was “no killing effect” throughout. For the same compound, in series [3] (under growth arrest conditions), the cytotoxicity result is recorded as “cytotoxic”.
With `Nc1nc2c(ncn2[C@@H]2O[C@@H]3COP(=O)(O)O[C@H]3[C@H]2O)c(=O)[nH]1` [cGMP], the “hydrolysis of cGMP as substrate” value in series [1] (hPDE IVB, substrate concentrations as great as 10 mM) is reported as “very poor activity; also recorded: No detectable hydrolysis”. Besides, the Michaelis constant (Km) in series [1] (substrate of hPDE IVB) is more than 10 mM.
